Experimental data: patent US7375085B1, “Melanocyte-stimulating hormone inhibitors” (Ajinomoto Co., Inc., priority 1999, dated 2008)
Read-outs that look alike come from different tables or passages of the source. Non-standard residues stand in square brackets, D forms with d. Residues, ends and D or L forms follow the SMILES beside them. 1Nal = N[C@@H](Cc1cccc2ccccc12)C(=O)O; d1Nal = N[C@H](Cc1cccc2ccccc12)C(=O)O; d2Nal = N[C@H](Cc1ccc2ccccc2c1)C(=O)O

Key:
Human melanocytes = test: Test on suppression of the melanin formation caused by human melanocytes (MSH added); format: cell-based; conditions: for Melanin formation suppressing activity (evaluation class): class of minimum concentration showing melanin formation suppressing activity; for Suppression rate of the melanin formation: human melanocytes + MSH, 6th day
Method: Human melanocytes in logarithmic growth phase were treated with trypsin and inoculated to a 6-well plate with “Medium 154s” (manufactured by Kurabo Industries Ltd., containing a growth factor (HMGS)), in an amount of 1.5×10^5 per 1 well in terms of cell number. The cells were cultured at 37° C. in a carbon dioxide incubator, the CO2 concentration being 5%, for 1 day. Thereafter, rinsing was carried out with the use of HBS (Hepes Buffer Saline), followed by medium replacement with “MCDB153” (containing fetal bovine serum, insulin, b-FGF, transferrin, and tocopherol), and followed by culturing for further 2 days. A whitening agent (containing a compound to be tested) was prepared with “MCDB153” (containing fetal bovine serum, insulin, b-FGF, transferrin, and tocopherol)+melanocyte-stimulating hormone in such way that the concentration would be 200 μM, 20 μM, or 2 μM, and was added to the 6-well plate. Also, a further 6-well plate culture was carried out with the use of “MCDB153” (containing fetal bovine serum, insulin, b-FGF, transferrin, and tocopherol)+melanocyte-stimulating hormone without the whitening agent, and still further a 6-well plate culture was carried out with the use of “MCDB153” (containing fetal bovine serum, insulin, b-FGF, transferrin, and tocopherol) alone, at the same time. The medium replacement with the above “MCDB153” (containing fetal bovine serum) containing a whitening agent was carried out twice every 2 days.
After the first addition of the whitening agent, the effect of suppressing the melanin formation was confirmed on the 6th day. Namely, the medium on each 6-well plate was removed by suction, and the wells were rinsed with HBS. Thereafter, the 6-well plate was air-dried, and ⅕M NaOH (230 μl) was added to the wells to dissolve the melanin out of the melanocytes. The solution (200 μl) was evaluated by Abs (absorbance) on a microplate reader (475 nm). The suppression rate of the melanin formation by each compound tested was calculated according to the following equation (1). The suppression rate of the melanin formation(%)={1−(A1−A3)/(A2−A3)}×100 (1) • A1: absorbance at 475 nm when both of the compound to be tested and MSH were added. • A2: absorbance at 475 nm when the compound to be tested was not added and MSH was added. • A3: absorbance at 475 nm when both of the compound to be tested and MSH were not added.

B16 melanoma cells = test: Measurement of 50% inhibitory concentration of cAMP production (IC50) with 10 nM melanocyte-stimulating hormone; format: cell-based
Method: The 50% inhibitory concentration of cAMP production (IC50) according to the present invention regarding the compounds having a melanocyte-stimulating hormone (MSH) inhibitory activity is measured and defined as follows.
Namely, B16 melanoma cells are inoculated on a 12-well plate in such way that 1×10^4 cells are inoculated into 1 well, and cultured at 37° C. for 48 hours in the presence of 5% CO2. After the culturing, the wells are washed with 1 ml of a serum-free medium (serum-free D-MEM medium) per 1 well. Then, a serum-free medium containing 1 mM 3-isobutyl-1-methylxanthine, 10 nM melanocyte-stimulating hormone and a compound to be tested at a different concentration is added in an amount of 1 ml per 1 well, followed by incubation at 37° C. for 5 minutes. After the incubation, the medium is completely removed from the plate, 1 ml of ice-cooled 2.5% perchloric acid is exactly added thereto, and then the whole is incubated for 30 minutes under ice-cooling to extract cAMP from within the cells. After the incubation, the extract solution is neutralized by adding 4.2M potassium hydroxide solution in an amount of […] per 1 well.
The neutralized extract solution is centrifuged at 4° C. at 12,000 rpm for 10 minutes, and the amount of cAMP in the supernatant is quantitatively determined using “Biotrak cAMP EIA System” (manufactured by Amersham Pharmacia Biotech), as follows. By the way, all the operations are carried out at 5° C. or lower. First, cAMP authentic samples are prepared so as to be 0 to 3200 fM, and each sample is placed in an amount of 100 μl in a 96-well plate. Then, 200 μl of 0.05M acetate buffer (pH 5.8, containing 0.02% serum and 0.01% antiseptic agent) is placed in an NSB well (Non-specific Binding Well) and 100 μl in a blank well. In a sample well is placed 100 μl of a sample to be evaluated. In each of all the wells except for the blank well and the NSB well is added 100 μl of antiserum. The 96-well plate is capped, slowly shaken, and incubated at 3 to 5° C. for 2 hours. After the incubation, 50 μl of cAMP peroxidase is added to each of all the wells except for the blank well. The plate is capped and incubated at 3 to 5° C. for 1 hour. After the incubation, each of all the wells is washed four times with 400 μl in total of 0.01M phosphate buffer (pH 7.5, containing 0.05% “Tween 20”). The liquid remaining in the wells is removed by placing the plate in such manner that the opening parts of the wells face downward, and patting the plate on a paper.
To each of all the wells is added 150 μl of an enzyme substrate, and the plate is shaken at 15 to 30° C. for 1 hour. After the shaking, 100 μl of 1 M sulfuric acid is added to each well, and absorbance at 450 nm is measured. A calibration curve is prepared from the absorbance of the cAMP authentic samples and the amount of cAMP of each sample is determined.
The 50% inhibitory concentration of cAMP production (IC50) is defined by the value in terms of nM unit, of a 50% inhibitory concentration obtained by the above procedures, of a test compound against cAMP production with 10 nM melanocyte-stimulating hormone.
According to the method of measuring the 50% inhibitory concentration of cAMP production (IC50) explained in the above, IC50 was measured on the agents listed in following Table 2, i.e., D-1-Nal-Arg-LeuNH2, D-2-Nal-Arg-LeuNH2, L-1-Nal-Arg-LeuNH2 and D-Trp-Arg-LeuNH2.

[1] = tested on: Weiser-Maples brown guinea pigs; test: Inhibitory test of melanocyte-stimulating hormone in living body (test of suppressing pigmentation in brown guinea pigs); format: in vivo, guinea pig; parameters: key: ◯: positive pigmentation suppressing effect; X: no pigmentation suppressing effect; —: not tested; conditions: 50 mM in 50% ethanol-water applied to skin, UVB irradiation, ΔL* vs 50% ethanol
Method: Inhibitory test of melanocyte-stimulating hormone was carried out by repeating the application of each test compound on a guinea pig and irradiation with ultraviolet rays, followed by measuring the degree of coloring, as follows.
D-2-Nal-Arg-LeuNH2 (50 mM, dissolved in 50% ethanol-water) and D-Trp-Arg-LeuNH2 (50 mM, dissolved in 50% ethanol-water) were used, and 50% ethanol-water was used as the control.
Male Weiser-Maples brown guinea pigs (4 weeks old) were purchased from Tokyo Experimental Animal K.K. and used after pre-reared for 7 weeks.
The brown guinea pigs were individually fixed by means of a fixing instrument and shaved in a square shape of about 3 cm×3 cm on their back with the use of a pair of hair clippers “THRIVE MODEL 6000AD” (manufactured by Natsume Seisakusyo) and “Home Hair Clipper Ceramic ER722” (manufactured by National) and an electric shaver “Dual 1500AC/RC” (manufactured by BRAUN). The skin after shaved was wiped with a water-soaked absorbent cotton, and the moisture was removed with a paper towel “KIMWIPE” (manufactured by CRECIA).
The skin of the back of the shaven brown guinea pigs was wiped with an ethanol-soaked absorbent cotton, and the horny layer having an area of about 2 cm×2 cm was subjected to tape stripping five times with the use of an adhesive tape “Scotch 313D” (manufactured by 3M). […]

[2] = Test of stability during storage (coloring of aqueous 0.1% solution, APHA method); format: physicochemical; conditions: for Degree of coloring (APHA Standard color): aqueous 0.1% solution stored at 4° C. for 6 months; for Stability during storage (evaluation class): class of degree of coloring, APHA standard colors
Method: An aqueous 0.1% solution of D-2-Nal-Arg-LeuNH2 of the present invention, and that of D-Trp-Arg-LeuNH2 which is a known melanocyte-stimulating hormone inhibitor were prepared and stored at 4° C. for 6 months, respectively. The stability during storage was evaluated by comparing the degree of coloring with standard colors of APHA (American Public Healthy Association) method.

[3] = B16 melanoma cells, 10 nM melanocyte-stimulating hormone, 5 min incubation, read-out: 50% inhibitory concentration (IC50) of cAMP production
[4] = class of 50% inhibitory concentration in the test, read-out: MSH inhibitory activity (evaluation class)

IC50 (B16 melanoma cells; [3]) [nM]	IC50 (B16 melanoma cells; [4]) [nM]	Degree of coloring (APHA Standard color) [2] [APHA]	Stability during storage (evaluation class) [2]	SMILES	Melanin formation suppressing activity (evaluation class) (Human melanocytes)	Suppression rate of the melanin formation (Human melanocytes; concentration 20 μM) [%]	Suppression rate of the melanin formation (Human melanocytes; concentration 200 μM) [%]	Brown Guinea pig pigmentation suppressing test (evaluation) [1]	Suppression rate of the melanin formation (Human melanocytes; concentration 2 μM) [%]
540	101 to 1000			CC(C)C[C@H](NC(=O)[C@H](CCCNC(=N)N)NC(=O)[C@H](N)Cc1cccc2ccccc12)C(N)=O [D-1-Nal-Arg-LeuNH2] (H-[d1Nal]-Arg-Leu-NH2)	B (11 to 100 μM)	43	52		
42	≤ 100	20	A (20 or less)	CC(C)C[C@H](NC(=O)[C@H](CCCNC(=N)N)NC(=O)[C@H](N)Cc1ccc2ccccc2c1)C(N)=O [D-2-Nal-Arg-LeuNH2] (H-[d2Nal]-Arg-Leu-NH2)	A (1 to 10 μM)	51	70	◯	49
230	101 to 1000	200	C (101 or more)	CC(C)C[C@H](NC(=O)[C@H](CCCNC(=N)N)NC(=O)[C@H](N)Cc1c[nH]c2ccccc12)C(N)=O [D-Trp-Arg-LeuNH2, reference compound] (H-[dW]-Arg-Leu-NH2)	B (11 to 100 μM)	24	57	X	
470	101 to 1000			CC(C)C[C@H](NC(=O)[C@H](CCCNC(=N)N)NC(=O)[C@@H](N)Cc1cccc2ccccc12)C(N)=O [L-1-Nal-Arg-LeuNH2] (H-[1Nal]-Arg-Leu-NH2)	B (11 to 100 μM)	8	28		
